“Also recorded” adds a separate entry of the source. Where two headings read alike, the source gives them in different places.

In test [1] the test system is 22Rv1 prostate cancer cells. Briefly: MTS cytotoxicity assay in 22Rv1 prostate cancer cells. Conditions: Homo sapiens, 22Rv1, 48 h, read-out: reduction of 22Rv1 cell viability. The procedure: (§1) The assay was performed as follows. To determine the cell growth inhibition ability of the synthesized compounds the (3-(4,5-dimethylthiazol-2-yl)-5-(3-carboxymethoxyphenyl)-2-(4-sulfophenyl)-2H-tetrazolium) (MTS) assay used according to the manufacturer's recommended protocol. Stock solutions of the synthesized compounds were prepared in DMSO. Cells were seeded at a density of 1×10^5 cells in 96-well plates. After 24 hours, cells were treated at the indicated concentrations of test compounds, limiting the final DMSO concentration to less than 1%. After incubation at 37° C. in an environment of 5% CO2 for 48-72 hours, 10 μL of MTS reagent (CellTiter 96© AQueous One Solution Reagent) was added to each well and incubated at the above mentioned conditions for 2-4 hr. Absorbance was recorded at 490 nm on a BioTek Synergy Mx multimode plate reader and the viability of cells were plotted as percentage of controls.

The subject of test [2] is phosphorylated vascular endothelial growth factor receptor-2 (VEGFR2). Briefly: Western blot of pVEGFR2 in VEGF-treated HUVEC cells. Format: cell-based, human. Conditions: 20 μM, VEGF 10 ng/mL, 5 min. The procedure:
Cells were treated with test compounds (20 μM) along with VEGF (10 ng/mL) for 5 min. The DMSO was used as a negative control, whereas DMSO+VEGF was used as a positive control. Cells were lysed using RIPA buffer (10 mmol/L Tris-HCl, 1 mmol/L EDTA, 0.5 mmol/L EGTA, 1% Triton X-100, 0.1% sodium deoxycholate, 0.1% SDS and 140 mmol/L NaCl), supplemented with protease and phosphatase inhibitors (Halt Protease and Phosphatase Inhibitor). Cell lysates were centrifuged, and the supernatants were mixed with appropriate amount of 5×SDS loading buffer. Proteins were resolved on polyacrylamide gel and transferred onto nitrocellulose/PVDF membrane, blocked for 1 hour with 10% milk block prepared in 0.1% Tween 20 in 1×PBS (PBST), and treated with pVEGFR2 primary antibody at 4° C. overnight. The membrane was washed thrice with PBST, 5 minutes each, and treated with secondary antibody for 1 hour. The membrane was further washed three times, 5 minutes each, with PBST and developed using chemiluminescence, and the bands were analyzed using densitometry.

The test system of test [3] is human embryonic kidney (HEK293) cells. Briefly: MTS cytotoxicity assay in HEK293 cells. The settings on record: 72 hours, mean ± SD n = 3. Format: cell-based. How it is done: as §1
Cytotoxicity was also evaluated by using the low tumorigenic HEK293 cells at 50 μM concentration.
For orientation: Formazan colour is commonly taken as a measure of viable cells.

For test [4], the system named is MDA-MB-468 triple negative breast cancer cells. Briefly: MTS cytotoxicity assay in MDA-MB-468 triple negative breast cancer cells. Conditions: Homo sapiens, MDA-MB-468; 72 hours; mean ± SD n = 3. It is filed as cell-based. How it is done:
The assay was performed as follows.
Derivatives were dosed at 10, 50 and 100 μM for 24, 48 and 72 hours and cell viability measured by MTS assay (FIG. 5).

Test [5] concerns VEGF-induced proliferation of HUVEC cells. Briefly: VEGF-induced HUVEC proliferation, MTT assay. Format: cell-based, human. Conditions: for inhibition of VEGF-induced HUVEC proliferation (in words): 20 μM; for inhibition at 20 µM: Homo sapiens, HUVEC, 48 h, read-out: % Inhibition of Proliferation. Put shortly: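 HUVECs starved 24 h in 0.1% BSA/0.1% FBS basal medium, then treated 48 h with VEGF (10 ng/mL) alone or with compounds at 20 μM (DMSO <1%). Proliferation by MTT (2 h, 37° C), formazan dissolved in acidified isopropanol, absorbance at 570 nm.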

The target of test [6] is T1, Mitochondrial respiratory complex II (Rattus norvegicus, UniProt P21913+Q641Z9+Q6PCT8+Q920L2).
T1 construct: measured spectrophotometrically using isolated rat heart mitochondria; from tissue; host or cells: rat heart mitochondria / sub-mitochondrial particles
T1 sequence (Q920L2 35-656): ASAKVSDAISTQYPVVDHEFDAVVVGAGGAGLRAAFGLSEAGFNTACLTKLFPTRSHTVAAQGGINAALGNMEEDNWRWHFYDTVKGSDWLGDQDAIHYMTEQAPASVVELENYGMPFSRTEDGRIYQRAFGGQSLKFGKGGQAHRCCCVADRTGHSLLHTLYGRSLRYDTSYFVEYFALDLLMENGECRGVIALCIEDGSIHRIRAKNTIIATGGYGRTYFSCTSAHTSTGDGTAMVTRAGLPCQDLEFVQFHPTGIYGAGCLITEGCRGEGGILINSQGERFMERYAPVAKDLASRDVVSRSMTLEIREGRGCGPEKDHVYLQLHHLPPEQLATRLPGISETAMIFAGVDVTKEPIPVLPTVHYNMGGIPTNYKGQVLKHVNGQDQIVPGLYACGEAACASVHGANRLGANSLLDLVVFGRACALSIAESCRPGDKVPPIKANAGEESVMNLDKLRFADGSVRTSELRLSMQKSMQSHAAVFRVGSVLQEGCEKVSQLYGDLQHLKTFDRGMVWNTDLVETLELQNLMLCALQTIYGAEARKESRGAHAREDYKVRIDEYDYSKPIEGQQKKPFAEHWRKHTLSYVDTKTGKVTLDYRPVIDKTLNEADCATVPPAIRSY
T1 sequence (P21913 31-282): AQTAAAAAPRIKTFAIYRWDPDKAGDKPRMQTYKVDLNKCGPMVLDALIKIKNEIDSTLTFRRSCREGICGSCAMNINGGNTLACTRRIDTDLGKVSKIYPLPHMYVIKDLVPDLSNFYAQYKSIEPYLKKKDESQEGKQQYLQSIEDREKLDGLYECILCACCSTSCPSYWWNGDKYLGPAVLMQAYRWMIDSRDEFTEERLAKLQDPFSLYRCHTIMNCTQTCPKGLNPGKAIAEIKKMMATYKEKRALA
T1 sequence (Q641Z9 1-169): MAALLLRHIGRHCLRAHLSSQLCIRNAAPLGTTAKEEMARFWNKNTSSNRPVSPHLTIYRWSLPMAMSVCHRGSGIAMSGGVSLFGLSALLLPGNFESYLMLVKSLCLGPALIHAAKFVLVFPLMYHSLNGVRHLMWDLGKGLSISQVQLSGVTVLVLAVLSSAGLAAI
T1 sequence (Q6PCT8 57-159): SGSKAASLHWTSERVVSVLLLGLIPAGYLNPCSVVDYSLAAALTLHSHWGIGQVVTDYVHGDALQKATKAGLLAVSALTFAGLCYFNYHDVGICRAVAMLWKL
Briefly: Mitochondrial respiratory complex II inhibition assay. Conditions: 100 μM, relative to DMSO control; read-out: inhibition of CII. It is filed as biochemical. The essentials:
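Rat heart mitochondria or sub-mitochondrial particles in phosphate buffer pH 7.4 with 40 μM DCPIP, 1 mM KCN, 10 μM rotenone and 50 μM co-enzyme Q2.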

Where [7] appears, read: 20 μM compound, VEGF 10 ng/mL, relative to VEGF treated cells, mean ± SEM n = 3.

Turning to `CC(NC1=NS(=O)(=O)c2ccccc2N1)c1ccccc1` (stereo not shown) [Compound 24d, 3-((1-phenylethyl)amino)-4H-benzo[e][1,2,4]thiadiazine 1,1-dioxide], the cytotoxicity at 100 µM in test [1] was around 30%. In addition, the “attenuation of pVEGFR2 expression” value in test [2] is “outperformed the parent compound; also recorded: most potent”.

For the compound `O=S1(=O)N=C(NCc2ccc(OC(F)(F)F)cc2)Nc2cc(Cl)ccc21` [Compound 30b, 6-chloro-3-((4-(trifluoromethoxy)benzyl)amino)-4H-benzo[e][1,2,4]thiadiazine 1,1-dioxide], the IC50 in test [3] was determined as 77.2 µM; in test [4], 48 µM. In test [5] (VEGF 10 ng/mL), the “inhibition of VEGF-induced HUVEC proliferation (in words)” value (“inhibition … (in words)” for short) is listed as “suppressed HUVEC proliferation; also recorded: enhanced activity”. Also, the inhibition at 20 µM in test [5] (setting [7]) stood at 196 ± 11%. In addition, in test [2], the “attenuation of pVEGFR2 expression” value is given as “outperformed the parent compound; also recorded: most potent”.

Regarding `O=S1(=O)N=C(NCc2ccc(OC(F)(F)F)cc2)Nc2ccc(Br)cc21` [Compound 30c, 7-bromo-3-((4-(trifluoromethoxy)benzyl)amino)-4H-benzo[e][1,2,4]thiadiazine 1,1-dioxide], the cytotoxicity at 100 µM in test [1] is 45%. Also, the “attenuation of pVEGFR2 expression” value in test [2] is on record as “outperformed the parent compound”. Moreover, the inhibition at 100 µM in test [6] amounted to 21%.

Regarding `Cc1cccc(CNC2=NS(=O)(=O)c3cc(Cl)ccc3N2)c1` [Compound 58e, 7-Chloro-3-((3-methylbenzyl)amino)-4H-benzo[e][1,2,4]thiadiazine1,1-dioxide], the “inhibition … (in words)” value in test [5] (VEGF 10 ng/mL) is recorded as “suppressed HUVEC proliferation; also recorded: enhanced activity”. The inhibition at 20 µM in test [5] came out at 145 ± 6%. For the same compound, the “attenuation of pVEGFR2 expression” value in test [2] is “outperformed the parent compound”.

For `O=S1(=O)N=C(NC2CCCC2)Nc2ccc(Cl)cc21` [Compound 59e, 7-Chloro-3-(cyclopentylamino)-4H-benzo[e][1,2,4]thiadiazine 1,1-dioxide], the “inhibition … (in words)” value in test [5] (VEGF 10 ng/mL) is recorded as “suppressed HUVEC proliferation; also recorded: enhanced activity”. Besides, in test [5] (setting [7]), the inhibition at 20 µM stood at 133 ± 6%. Besides, the “attenuation of pVEGFR2 expression” value in test [2] is reported as “outperformed the parent compound; also recorded: most potent”.

Turning to `COc1cccc(CNC2=NS(=O)(=O)c3cc(Cl)ccc3N2)c1` [Compound 62e, 7-Chloro-3-((3-methoxybenzyl)amino)-4H-benzo[e][1,2,4]thiadiazine 1,1-dioxide], the “inhibition … (in words)” value in test [5] (VEGF 10 ng/mL) is “suppressed HUVEC proliferation; also recorded: enhanced activity”. The inhibition at 20 µM in test [5] was 96 ± 16%. Also, the “attenuation of pVEGFR2 expression” value in test [2] is “outperformed the parent compound; also recorded: most potent”.

What is called IC50 is the concentration needed to halve the response being measured.

The values are drawn from patent US20230219912A1, “HALOGENATED BENZOTHIADIAZINES FOR THE TREATMENT OF CANCER” (BOARD OF REGENTS OF THE UNIVERSITY OF NEBRASKA, priority 2020, published 2023).
